Experimental data taken from patent US20260263468A1 (Fundación Instituto de Investigación Sanitaria Fundación …, priority 2023, published 2026).

What was measured:
[1] = tested on: K/B×N serum transfer-induced arthritis; experiment: Atrogenes mRNA expression (RT-PCR) in gastrocnemius; format: in vivo, C57BL/6J mice; details: RA+Dipy
Description: Total RNA was isolated from crushed frozen gastrocnemius using TRIzol reagent (Roche Diagnostics, Barcelona, Spain) following manufacturer's instructions. A total of 1 μg RNA was reverse transcribed with a High Capacity cDNA Reverse Transcription Kit (Applied Biosystems, San Francisco, CA, USA) at […], including the following reagents, in the same reaction: RNase Inhibitor 1 U/μL, Random Hexamers […], MgCl2 5 mM, PCR buffer II 1× and dNTPs 1 mM. Relative quantification of gene expression was performed via real-time RT-PCR on a Step One Plus (Applied Biosystems) with Power UP SYBR Green MasterMix according to the manufacturer's protocol. The primers were provided from Sigma-Aldrich according to the primer bank at https://pga.mgh.harvard.edu/primerbank/. Gene expression levels were calculated with the ΔΔCt method.

[2] = tested on: K/B×N serum transfer-induced arthritis; experiment: Tissues weight at collection, acute model of inflammation; format: in vivo, C57BL/6J mice
Description: Data collected for absolute weight are correlated with mouse weight to obtain relative weight (*indicates differences with the sham group and $ indicates differences with the arthritic group). WAT, white adipose tissue; BAT, brown adipose tissue. Values are presented as mean±SEM. […]
Mice were weighted weekly. Development of arthritis was assessed daily, and the severity of arthritis was assessed in each paw on a 4-point scale defined as follows: 0=normal appearance, 1=localized edema/erythema over one surface of the paw, 2=edema/erythema involving more than one surface of the paw, and 3-4=marked edema/erythema involving the whole paw. Scores of all 4 paws were added for a composite score. All motor activity tests were performed prior to serum inoculation and at the highest point of inflammation. Mice were euthanized on day 16 for acute inflammation model or 30 days for Inflammation resolved model. A representative photo of body structure and muscle of pawn were taken on this day. Gastronemius was collected for protein and RNA extraction. Tibialis and soleus were included for freeze histology following the indications of H. Meng (see references in ref. 44). Bones were prepared for micro-computed tomography (microCT) and histology. Blood was drawn and serum was isolated for measurement of inflammatory cytokines and C-reactive protein (CPR).

C2C12 [3] = details: dipyridamole 1 μM ± PSB-603 1 μM
Description: (§1) Cells were lysed with RIPA buffer and protein concentration was determined by BCA. […] Variations in intensity were expressed as % of basal (day 0) and expressed as mean±SEM. All results were calculated as a percentage of non-differentiated controls to minimize the intrinsic variation among different experiments.

C2C12 [4] = experiment: Nucleotide concentration by HPLC during C2C12 differentiation; format: cell-based
Description: Supernatant and cell lysate are collected every day. Cells were lysated with a homemade buffer (1 mM phenylmethylsulfonyl fluoride, 1 mM protease inhibitor cocktail, 1 mM sodium orthovanadate, 1 mM sodium fluoride and 1 mM β-glicerophospate) and supernatant was used directly. A heat shock step was done at 98° C. for 2 min, and to avoid adenosine degradation 1 μM EHNA was added at the time of heating. All samples were centrifuged at 13000 g for 10 min at 4° C. and supernatants were collected and stored at −80° C. until use. Inosine, adenosine, AMP, ADP and ATP concentrations were determined with high performance liquid chromatography (HPLC) using a liquid chromatograph with a reversed phase column (Agilent 1100 Series Liquid Chromatography) and an UV detector set at 254 nm. Buffer composed of 0.1 mol/L KH2PO4 (pH 7.5) and 18% acetonitrile was run at 1.5 ml/min for 20 min. Compounds were identified and quantified by their retention times and peak areas of known standards, calibrated by spectrophotometry. […] The results have been corrected and expressed as mean±SEM. All results were calculated as a percentage of controls without differentiation state.

C2C12 [5] = experiment: Western blot of PKA isoforms, pCREB, EPAC1/2; format: cell-based; details: 1 μM
Description: as §1
To study the CAMP signaling pathway, we analyzed the expression of PKA on its three catalytic isoforms PKAα, PKAβ and PKAγ as well as EPAC1/2. […] Tenofovir reduced its phosphorylation (154±9% tenofovir vs 247±30% control at day 4, p<0.05, FIG. 3B).

C2C12 [6] = experiment: Western blot of adenosine receptors, P2X7 and Panx-1 during differentiation; format: cell-based; details: 1 μM
Description: as §1
The expression of adenosine receptors, P2X7 receptor and Panx-1 channel was analyzed during myoblast differentiation.

C2C12 [7] = experiment: Western blot of phosphorylated AMPK; format: cell-based; details: 1 μM each, day 4; control 1.29±0.27%
Description: as §1
We next studied if these changes in AMP/ATP ratio had any effect in AMPK activation.

C2C12 myoblast cell line = experiment: Western blot of C2C12 under pro-inflammatory conditions with/without dipyridamole
Description: Western blot was performed as described above.
Protein concentration was determined by BCA. 4 μg for cells and 40-50 μg for tissue samples of protein was subjected to 6-15% SDS-PAGE and transferred to a nitrocellulose membrane. Membranes were blocked with 3% BSA in Tris-buffered saline containing 0.1% Tween-20 (TBS-T). After that, the membranes were incubated overnight at 4° C. with the primary antibodies for A2A, A2B, MHC (Thermo Fisher Scientific, Waltham, USA), AMPK, pAMPK (Thr172), p21, p16 (Cell signaling, Danvers, EEUU) (1:1000 each) and Pax-7 (Developmental Studies Hybridoma Bank, Houston, EEUU) (1:500 each).

C2C12 [8] = experiment: cAMP concentration (ELISA); format: cell-based; details: myoblast, 1 μM, 5 minutes; control 0.58±0.13
Description: CAMP concentration was measured using the colorimetric cAMP ELISA kit following manufacture protocol for acetylated cell lysates (Cell Biolabs, San Diego, USA). Absorbance was measured at 450 nm using a microplate reader Tecan Spark 20M.
The CAMP signaling cascade has been linked to a delay in the onset of age-related muscle loss.

[9] = tested on: K/B×N serum transfer-induced arthritis; experiment: Histological analysis of tibialis anterior (H&E, ATPase, picrosirius red, oil red O)
Description: Analysis of tibialis tissue structure by Hematoxylin and eosin (H&E) staining was performed. Frozen samples were sectioned at 10 μm. For staining and subsequent processing by image segmentation we followed the indications established by Liu et al (53). Briefly, sections were brought from −80° C. to room temperature and immediately immersed in methanol for 30 min to improve fixation and stained with Hematoxylin and eosin. Image analysis was performed with ImagePro 2.2 using the Muscle Morphometry plugin following Liu's protocol.
H&E staining was performed on frozen tibialis anterior (TA). Frozen samples were section at 10 μm. For staining and subsequent processing by image segmentation we followed the indications established by Liu et al (53). Briefly, sections were brought from −80° C. to room temperature and immediately immersed in methanol for 30 min to improve fixation and stained with hematoxylin and eosin. Image analysis of cross-sectional area (CSA) was performed with ImagePro 2.2 using the Muscle Morphometry plugin following Liu's protocol.
ATPase staining was performed in TA 10 μM cross-sections as previously described (2). Briefly, cross-sections were incubated 45 min in 0.1 M glycine/NaCl buffer pH 9.4 with 0.75 M CaCl2 and 5 mg ATP (Sigma-Aldrich). After rinsed in distilled water, sections were incubated in 2% cobalt chloride, and then immersed in dilute (1/10) ammonium chloride to develop type 1 (white) and type 2 (black) fibers. After dehydration, sections were mounted with DPX mounting medium (VWR International Ltd., Lutterworth, UK). The quantification of the fiber types was performed using the Image J software package 1.49v (NIH, Bethesda, MD, USA).
Picrosirius Red staining was performed in TA to visualized tissue fibrosis. Slides were air-drayed for 30 min at room temperature and fixed in PFA 4% 30 min. Next, the sections were incubated for 90 min in picrosirius red solution (Polysciences) and immersed immediately in 0.1M HCl solution (Polysciences) for 1 min. The sections were washed 2 times in H2O, dehydrated in serial dilutions of alcohol and mounted with DPX. Bright field and polarized light images were taken. The quantification of infiltration of collagen I were performed using the Image J software package 1.49v (NIH, Bethesda, MD, USA) on polarized images.
To visualize triglycerides infiltration in the muscle, serial frozen TA 10 μm cross-sections were thaw and air dry and fixed in PFA 4% for 1 h before oil red O staining. […] Then we isolate the oil red staining retained in muscle with 200 μL of isopropanol in agitation to quantify the fat infiltrated in every muscle. The oil red released was read from 75 μL samples in a 96-well plate by Tecan Spark 20M in duplicate at 500 nm.

OCCN(CCO)c1nc(N2CCCCC2)c2nc(N(CCO)CCO)nc(N3CCCCC3)c2n1 [dipyridamole, 2,6-bis(Diethanolamino)-4,8-dipiperidinopyrimido[5,4-d]pyrimidine]
Atrogin-1 mRNA expression ([1]; RA 5.40±1.37, Sham 1.94±0.33): 0.29±0.09
Murf1 mRNA expression ([1]; RA 8.71±2.75, Sham 1.60±0.35): 1.60±0.22
BAT, Absolute weight ([2]; RA + Dipy): 0.157 ± 0.005 g
EDL, Absolute weight ([2]; RA + Dipy): 0.010 ± 0.013 g
Gastronemius, Absolute weight ([2]; RA + Dipy): 0.123 ± 0.004 g
Quadriceps, Absolute weight ([2]; RA + Dipy): 0.15 ± 0.01 g
Soleus, Absolute weight ([2]; RA + Dipy): 0.008 ± 0.001 g
Tibialis, Absolute weight ([2]; RA + Dipy): 0.056 ± 0.004 g
WAT, Absolute weight ([2]; RA + Dipy): 0.198 ± 0.018 g
Bodyweight, Absolute weight ([2]; RA mice + Dipy 25 mg/kg/day): 22.12 ± 0.18 g
BAT, Absolute weight ([2]; healthy mice, Dipy alone): 0.16 ± 0.003 g
EDL, Absolute weight ([2]; healthy mice, Dipy alone): 0.011 ± 0.008 g
Gastronemius, Absolute weight ([2]; healthy mice, Dipy alone): 0.174 ± 0.007 g
Soleus, Absolute weight ([2]; healthy mice, Dipy alone): 0.011 ± 0.002 g
Tibialis, Absolute weight ([2]; healthy mice, Dipy alone): 0.08 ± 0.009 g
WAT, Absolute weight ([2]; healthy mice, Dipy alone): 0.22 ± 0.02 g
Bodyweight, Absolute weight ([2]; healthy mice, Dipy alone 25 mg/kg/day): 24.26 ± 1.72 g
PAX7 protein expression (C2C12 [3]; 2% HS, day 1): 198±24%
MHC protein expression (C2C12 [3]; day 1): 95±13%
Myf5 protein expression (C2C12 [3]; day 3): 79.48±31%
PKAα protein expression (C2C12 [3]; day 4): 358±156%
pAMPK expression (C2C12 [3]; day 4): 284±79.8%
pCREB (C2C12 [3]; day 4): 399.6±119.8%
Extracellular ATP (C2C12 [4]; 1 μM each, day 4, control 14.7±0.5): did not modify
Intracellular adenosine (C2C12 [4]; 1 μM, day 4, control 10.87±0.73): 13.76 ± 1.13 nM
Intracellular inosine (C2C12 [4]; 1 μM, day 4, control 11.07±0.54): 14.17 ± 1.75 nM
Intracellular AMP (C2C12 [4]; 1 μM, day 4, control 12.10±0.73): 18.53 ± 1.13 nM
Extracellular adenosine (C2C12 [4]; 1 μM, day 4 of differentiation, control 11.6±0.81): 17.33 ± 0.47 nM
pCREB (% of basal) (C2C12 [5]; day 4, control 247±30%): 275±73%
EPAC2 protein expression (C2C12 [5]; within differentiation): decreased
A3 receptor protein expression (C2C12 [6]; compared to control): did not change
P2X7 protein expression (% of basal) (C2C12 [6]; day 4): 202±46%
pAMPK (Western blot) (C2C12 [7]): 2.66±0.7%
CREB expression (vs 100% basal) (C2C12 myoblast cell line; 24 h of differentiation): 361.5±68.8%
AMPK activation (C2C12 myoblast cell line; cytokine/LPS ± dipyridamole 1 μM, day 4, control 222.7±23.9%): did not increase AMPK levels
PKAα expression (C2C12 myoblast cell line; day 4, dipyridamole combined with IL-6, IL-6 alone 107±5.8%): 245.3±34.3%
PKAα expression (C2C12 myoblast cell line; day 4, dipyridamole combined with INFγ, INFγ alone 101.7±3.7%): 245.3±34.3%
PKAα expression (C2C12 myoblast cell line; day 4, control 213.9±21.6%): 245.3±34.3%
Myogenesis (PAX7, MHC) (C2C12 myoblast cell line; dipyridamole 1 μM alone): did not modulate myogenesis
cAMP levels (C2C12 [8]): 0.85±0.17
Collagen I fibers (Picrosirius Red) ([9]; RA+Dipy, RA 111.1±1.20%, Sham 100±1.26%): 94.78±0.98%
Fat infiltrate in TA (Oil Red staining) ([9]; RA+Dipy, RA 170.1±6.94%, Sham 100±3.97%): 99.21±7.217%
Tibialis muscle fiber area ([9]; arthritic mice + dipyridamole, acute model, arthritic 508±20, sham 1211±43): 1305±35 μm^2
Fat infiltration across whole muscle (TA and EDL) ([9]; healthy mice, dipy alone): able to decrease this fat infiltration
